Data taken from patent publication US11672788B2, “Histone deacetylase inhibitors for immunomodulation in tumor microenvironment” (GREAT NOVEL THERAPEUTICS BIOTECH & MEDICALS CORPORATION, priority 2020, dated 2023).

Tests used:
[1] = tested on: M10 cells; assay: Cell cycle arrest by PI flow cytometry; assay type: cell-based, human; settings: M10, 12.5 μM, 72 h
Description: (§1) A PI/RNase staining assay (BD Bioscience™) was performed to reveal the presence of cell cycle arrest and apoptotic cells after treatment with GNTbm compounds, Chidamide and Entinostat. […] After treatment cells were harvested, fixed with 80% ethanol for 24 h, washed with 1×PBS and stained with PI/RNase for 15 min at room temperature. The cells were then analyzed using Flow Cytometer within 1 h.

[2] = tested on: SW48 cells; assay: Cell cycle arrest by PI flow cytometry; assay type: cell-based, human; settings: SW48, 3.125 μM, 72 h
Description: as §1

[3] = tested on: MDA-MB-231 cells; assay: Cell cycle arrest by PI flow cytometry; assay type: cell-based, human; settings: MDA-MB-231, 3.125 μM, 72 h
Description: as §1

[4] = tested on: M10 cells; assay: Cell apoptosis (sub-G1) by PI flow cytometry; assay type: cell-based, human; settings: M10, 12.5 μM, 72 h
Description: as §1

[5] = tested on: SW48 cells; assay: Cell apoptosis (sub-G1) by PI flow cytometry; assay type: cell-based, human; settings: SW48, 6.25 μM, 72 h
Description: as §1

[6] = tested on: MDA-MB-231 cells; assay: Cell apoptosis (sub-G1) by PI flow cytometry; assay type: cell-based, human; settings: MDA-MB-231, 6.25 μM, 72 h
Description: as §1

[7] = tested on: SK-BR-3; assay: In vitro cytotoxicity MTT assay; assay type: cell-based; settings: Homo sapiens, 72 h, IC50 ± SD
Description: (§2) Six different cell lines were used, including human breast cancer cell line MDA-MB-231 (6×10^3), MDA-MB-453 (2.4×10^4), SK-BR-3 (6×10^3), human breast epithelial cell line M10 (6×10^3), human gastric carcinoma NCI-N87 (2.4×10^4), and human colorectal adenocarcinoma SW48 (2.4×10^4), and seeded in a 96 well plate. Cell lines were obtained from Bioresource Collection and Research Center, BCRC, Taiwan. […] After 72 h, MTT assay (Cayman™) was used to determine the cellular viability.

[8] = molecular target: HDAC11 (Homo sapiens (Human), UniProt Q96DB2); assay: HDACs 1-11 enzymatic inhibition by BPS Bioscience
Description: HDAC assay was performed according to standard Protocols (Fluorgenic HDACs 1-11 assay kit, BPS Bioscience™). […] After 0.5 h, assay developer was added to the samples and the absorbance was read at fluorogenic wavelength. The relative inhibition to HDACs 1, 2, 3, 4, 5, 6, 7, 8, 9, and 11 activities was determined in each sample. […] All of the compounds were dissolved in DMSO. The serial dilution of the compounds was first performed in 100% DMSO with the highest concentration at 1 mM. Each intermediate compound dilution (in 100% DMSO) would then get directly diluted 10× fold into assay buffer for an intermediate dilution of 10% DMSO in HDAC assay buffer and 5 μl of the dilution was added to a 50 μl reaction so that the final concentration of DMSO is 1% in all of the reactions. The enzymatic reactions for the HDAC enzymes were conducted in duplicate at 37° C. for 30 minutes in a 50 μl mixture containing HDAC assay buffer, 5 μg BSA, an HDAC substrate, a HDAC enzyme and a test compound. After enzymatic reactions, 50 μl of 2×HDAC Developer was added to each well for the HDAC enzymes and the plate was incubated at room temperature for an additional 15 minutes. Fluorescence intensity was measured at an excitation of 360 nm and an emission of 460 nm using a Tecan Infinite M1000 microplate reader. HDAC activity assays were performed in duplicate at each concentration. The fluorescent intensity data were analyzed using the computer software, Graphpad Prism. In the absence of the compound, the fluorescent intensity (Ft) in each data set was defined as 100% activity. In the absence of HDAC, the fluorescent intensity (Fb) in each data set was defined as 0% activity. The percent activity in the presence of each compound was calculated according to the following equation: % activity=(F−Fb)/(Ft−Fb), where F=the fluorescent intensity in the presence of the compound. The values of % activity versus a series of compound concentrations were then plotted using non-linear regression analysis of Sigmoidal dose-response curve generated with the equation Y=B+(T−B)/1+10((Log EC50−X)×Hill Slope), where Y=percent activity, B=minimum percent activity, T=maximum percent activity, X=logarithm of compound and Hill Slope=slope factor or Hill coefficient. The IC50 value was determined by the concentration causing a half-maximal percent activity.

[9] = tested on: histone H3 acetylation (AcH3) in MDA-MB-231 cells; assay: Western blot of histone H3 acetylation; assay type: cell-based, human; settings: MDA-MB-231, 1.0 μM, 24 h
Description: Human breast cancer MDA-MB-231 cells and human colorectal adenocarcinoma SW48 cells were analyzed. MDA-MB-231 and SW48 were obtained from Bioresource Collection and Research Center (BCRC, Taiwan). MDA-MB-231 and SW48 were grown at 37° C. under humidified air supplemented without CO2 in Leibovitz's L-15 (cat. #11415114, Thermo Fisher Scientific) containing 10% heat inactivated fetal calf serum (Thermo Scientific), 1× concentration of MycoZap antibiotics (cat. #VZA-2011, Lonza). Cells were treated with GNTbm compounds series, Chidamide or Entinostat for different time periods or at varied doses. Cells were treated with indicated doses for 24 h or cells were treated with indicated doses for different time periods. Cell pellets were dissolved with RIPA buffer (cat. #20-188, Merck) with protease and phosphatase inhibitors (cat. #K272, BioVision) and clarified by centrifugation. Equal amounts of total protein were resolved by SDS-PAGE and transferred to polyvinylidene fluoride membranes (cat. #1620177, BIO-RAD). Blots were incubated with primary antibodies against β-actin (cat. #sc-47778, Santa Cruz Biotechnology), Histone 3ac (cat. #61637, Active Motif), and HRP secondary antibodies anti-rabbit (ab6721, Abcam) and anti-mouse (sc-2005, Santa Cruz). Blots were developed using the ECL Western Blotting Substrate (cat. #sc-2048, Santa Cruz Biotechnology) Image blots were analyzed with the iBright FL1000 (Thermo Fisher Scientific) imaging systems.

[10] = tested on: SW48; assay: In vitro cytotoxicity MTT assay; assay type: cell-based, human; settings: Homo sapiens, SW48, 72 h, IC50 ± SD
Description: as §2

[11] = tested on: M10; assay: In vitro cytotoxicity MTT assay; assay type: cell-based, human; settings: Homo sapiens, M10, 72 h, IC50 ± SD
Description: as §2

[12] = tested on: MDA-MB-231; assay: In vitro cytotoxicity MTT assay; assay type: cell-based, human; settings: Homo sapiens, MDA-MB-231, 72 h, IC50 ± SD
Description: as §2

[13] = tested on: MDA-MB-453; assay: In vitro cytotoxicity MTT assay; assay type: cell-based, human; settings: Homo sapiens, MDA-MB-453, 72 h, IC50 ± SD
Description: as §2

[14] = tested on: CT26 cells; assay: Tumor rechallenge study (immune memory) in tumor-bearing mice; assay type: in vivo; settings: Exp 1; mice resistant to CT26 re-challenge
Description: All mice with PR/CR response after treatment went rechallenged with CT26 cells on the contralateral side (please see Table 6). The rechallenge with CT26 was performed on day 33, which was 7 days (day 33) after first tumor assessment (day 26), with injection of 5×10^6 CT26 cells to the right flank of each mouse. After rechallenge with CT26 cells, the tumor was allowed to grow for another 7 days (day 40) to determine the baseline as 1 fold. After a further 10 days (day 50), the tumor growth was evaluated for the rechallenge. If both of the following criteria are met, the response will be considered as relapse: first, the tumor size over 2 folds when compared to that of baseline; second, the tumor volume at day 50 was over 300 mm^3. Relapse happens when immune memory activity is not sufficiently activated. If the tumor growth is inhibited, it means the immune memory is activated.
The mice were treated with different regimens for 16 days, and then the first tumor assessment was performed (day 26). […] Then rechallenge was performed with the same kind of cancer cells (CT26; 5×10^6) inoculated on the opposite flank for about another 7 days (day 40), and then the tumor volume would be determined as baseline (1 fold). The rechallenge tumor was allowed to grow for 10 days (day 50), and then the tumor size was measured to evaluate the immune memory as positive or negative. […]

[15] = tested on: CT26 tumor; assay: Survival rate in CT26 tumor-bearing mice; assay type: in vivo; settings: Exp 1
Description: The administration of antibody or drugs was performed for 16 days from day 8 to day 23. The tumor continued to grow in the tumor-bearing mice. The tumor volume of the mice was measured once every three or four days (twice/week). The tumor-bearing mice were regarded as dead when the tumor volume reached 3,000 mm^3. All treatment groups were recorded and analyzed.

[16] = tested on: CT26 tumor; assay: Anti-cancer activity in CT26 tumor-bearing BALB/c mice; assay type: in vivo; settings: for ORR (%): k-30 compounds 50 mg/kg, Regorafenib 30 mg/kg po daily; for ORR (%) / CR / PD / PR: first tumor assessment; for CR / PD / PR / CR^& / PD^& / PR^& / SD^&: number of mice; for ORR (%)^& / CR^& / PD^& / PR^& / SD^&: second tumor assessment on day 40
Description: Six- to eight-week-old male BALB/c mice (National Laboratory Animal Center, Taiwan) were used in each treatment group for all animal experiments. […] CT26 cell line was purchased from ATCC. CT26 tumor cells were grown in McCoy's 5A supplemented with 10% (vol/vol) FBS at 37° C., 5% CO2. […] Tumors were allowed to grow for 8-11 days (tumor size about 150-250 mm^3) before randomization and treatment. Animals were euthanized when tumors reached more than 3000 mm^3 […]. CT26-bearing mice were given 2.5 mg/kg of anti-IgG (cat. #BE0089, Lot #716719J3, Bio X Cell) and anti-PD-1 (cat. #BE0146, Lot #735019J3, Bio X Cell) antibody by i.p. administration on days 8, 11, 14, 17, 20 and 23 post tumor implantation, and all antibodies were diluted to appropriate concentrations in 100 μL of sterile PBS (pH 7.4) (Invitrogen Life Technologies). […] The anti-cancer activity was measured from the start of the treatment until the tumor volume reached 3,000 mm^3. Tumor volume was calculated as length×width^2×0.5.
The BALB/c mice bearing murine CT26 colon tumors were treated with various therapeutic modalities as indicated. […] CT26 tumor-bearing mice were euthanized when tumor volume reached 3000 mm^3 after tumor implantation. […] After 16 days of treatment, we continued to monitor the tumor size up to day 60. When tumor growth reappeared and tumor size reached at least 5 fold in mice with CR or PR response after first tumor assessment, it was defined as relapse/recurrence. […] Furthermore, we also investigate epigenetic immunomodulatory properties in series of GNTbm compounds including GNTbm-05/k-30, GNTbm-11/k-30, GNTbm-38/k-30 and GNTbm-39/k-30.

Sequence of HDAC11 (Q96DB2 whole entry): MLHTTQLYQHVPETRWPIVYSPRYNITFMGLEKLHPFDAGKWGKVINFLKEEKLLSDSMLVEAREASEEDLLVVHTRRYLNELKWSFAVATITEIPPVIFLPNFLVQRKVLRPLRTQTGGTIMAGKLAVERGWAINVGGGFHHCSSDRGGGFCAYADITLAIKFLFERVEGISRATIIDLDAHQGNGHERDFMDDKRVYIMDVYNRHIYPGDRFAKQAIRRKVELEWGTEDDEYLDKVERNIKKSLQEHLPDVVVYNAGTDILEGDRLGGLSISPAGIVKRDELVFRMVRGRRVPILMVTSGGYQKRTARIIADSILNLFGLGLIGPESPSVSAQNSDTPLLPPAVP

Structure (SMILES): Nc1ccccc1NC(=O)c1ccc(CNC(=O)OCc2cccnc2)cc1 [Entinostat, reference compound]
- Cell cycle arrest [1]: significantly induced cell cycle arrest of M10 cells in the G2/M phase
- Cells in G2/M phase [1]: 20.2%
- Cell cycle arrest [2]: significantly induced cell cycle arrest in G0/G1 phase
- Cells in G0/G1 phase [2]: 72.1%
- Cell cycle arrest [3]: significantly induced cell cycle arrest in G0/G1 phase
- Induction of apoptosis (sub-G1 phase) [4]: significantly induced apoptosis in M10 cells
- Induction of apoptosis (sub-G1 phase) [5]: significantly induced apoptosis
- Induction of apoptosis (sub-G1 phase) [6]: significantly induced apoptosis
- IC50 [7]: 1.94 ± 0.1 µM
- IC50 [8]: > 10 µM
- Level of histone H3 acetylation [9]: significantly increased the level of histone H3 acetylation
- IC50 [10]: 5.21 ± 0.37 µM
- IC50 [11]: 4.34 ± 0.01 µM
- IC50 [12]: 13.2 ± 1.34 µM
- IC50 [13]: 1.82 ± 0.024 µM

Structure (SMILES): CNC(=O)c1cc(Oc2ccc(NC(=O)Nc3ccc(Cl)c(C(F)(F)F)c3)c(F)c2)ccn1 [Regorafenib]
- Immunity (rechallenge) [14]: 100% (1/1)
- Survival rate (%) [15]: 11%
- ORR (%) ([16]; Exp 1, initial tumor volume 245 mm3, strict criteria (PR ≤1 times)): 11%
- CR ([16]; Exp 1): 1
- PD ([16]; Exp 1): 1
- PR ([16]; Exp 1): 0
- ORR (%)^& ([16]; Exp 1): 22%
- CR^& ([16]; Exp 1): 2
- PD^& ([16]; Exp 1): 5
- PR^& ([16]; Exp 1): 0
- SD^& ([16]; Exp 1): 2
- Relapse (recurrence) ([16]; Exp 1, tumor growth at least 5 fold in mice with CR or PR after first assessment, monitored up to day 60): 0% (0/1)
- ORR (%) ([16]; Exp 2, initial tumor volume 192 mm3): 0%
- CR ([16]; Exp 2): 0
- PD ([16]; Exp 2): 8
- PR ([16]; Exp 2): 0
- ORR (%)^& ([16]; Exp 2): 0%
- CR^& ([16]; Exp 2): 0
- PD^& ([16]; Exp 2): 9
- PR^& ([16]; Exp 2): 0
- SD^& ([16]; Exp 2): 0
